Reference: patent US20250295646A1, “METHODS OF USE OF T-TYPE CALCIUM CHANNEL MODULATORS” (Praxis Precision Medicines, Inc., priority 2022, published 2025)

System: adult patients with essential tremor
Experiment: Example 16: accelerometer-based (Kinesia ONE) TETRAS upper limb score
Type: in vivo, human
Text: Accelerometer (Kinesia ONE) TETRAS assessments were generally consistent with those conducted at the clinic. Accelerometer upper limb score values are summarized for Part A, the open-label titration phase of Part B, and the randomized withdrawal phase of Part B in Table 37, Table 38, and Table 39, respectively

[1] = Day 1, Post - dose, Part B, Formula (I) arm (N = 4), baseline upper limb score ≥10
[2] = Day 7, Part B, Formula (I) arm (N = 4), baseline upper limb score ≥10
[3] = Day 21, Part B, Formula (I) arm (N = 4), baseline upper limb score ≥10
[4] = Day 42, Post - dose, Part B, Formula (I) arm (N = 4), baseline upper limb score ≥10
[5] = Day 42, Pre - dose, Part B, Formula (I) arm (N = 4), baseline upper limb score ≥10
[6] = Day 42 Post - dose (Randomization Baseline), Part B, Formula (I) arm (N = 4), baseline upper limb score ≥10
[7] = Day 56, Part B, Formula (I) arm (N = 4), baseline upper limb score ≥10
[8] = Day 56, Part B, baseline upper limb score ≥10
[9] = Day 70, Part B, Formula (I) arm (N = 4), baseline upper limb score ≥10
[10] = Day 70, Part B, baseline upper limb score ≥10
[11] = Part A (N = 7), Day 1, Post - dose
[12] = Part B Open-Label Titration (N = 17), Day 1, Post - dose
[13] = Part B Open-Label Titration (N = 17), Day 7
[14] = Part B Open-Label Titration (N = 17), Day 21

CC(C)(C)NC(=O)CN1CCC(CNC(=O)c2cc(F)cc(Cl)c2)CC1 [compound of formula (I), N-((1-(2-(tert-butylamino)-2-oxoethyl)piperidin-4-yl)methyl)-3-chloro-5-fluorobenzamide]
Accelerometer-Based Upper Limb Score, Change from Baseline, Mean (SD) [1]: −0.45 (1.476)
Accelerometer-Based Upper Limb Score, Change from Baseline, Median [1]: −0.83
Accelerometer-Based Upper Limb Score, Mean (SD) [1]: 10.46 (2.611)
Accelerometer-Based Upper Limb Score, Median [1]: 11.50
Accelerometer-Based Upper Limb Score, Percentage Change from Baseline in Tremor Amplitude, Mean (SD) [1]: −7.70 (24.390) %
Accelerometer-Based Upper Limb Score, Percentage Change from Baseline in Tremor Amplitude, Median [1]: −14.36%
Accelerometer-Based Upper Limb Score, Change from Baseline, Mean (SD) [2]: −1.48 (0.814)
Accelerometer-Based Upper Limb Score, Change from Baseline, Median [2]: −1.85
Accelerometer-Based Upper Limb Score, Mean (SD) [2]: 9.67 (3.386)
Accelerometer-Based Upper Limb Score, Median [2]: 11.10
Accelerometer-Based Upper Limb Score, Percentage Change from Baseline in Tremor Amplitude, Mean (SD) [2]: −24.14 (12.303) %
Accelerometer-Based Upper Limb Score, Percentage Change from Baseline in Tremor Amplitude, Median [2]: −29.88%
Accelerometer-Based Upper Limb Score, Change from Baseline, Mean (SD) [3]: −0.56 (1.181)
Accelerometer-Based Upper Limb Score, Change from Baseline, Median [3]: −0.55
Accelerometer-Based Upper Limb Score, Mean (SD) [3]: 10.35 (3.035)
Accelerometer-Based Upper Limb Score, Median [3]: 11.48
Accelerometer-Based Upper Limb Score, Percentage Change from Baseline in Tremor Amplitude, Mean (SD) [3]: −9.09 (19.622) %
Accelerometer-Based Upper Limb Score, Percentage Change from Baseline in Tremor Amplitude, Median [3]: −9.68%
Accelerometer-Based Upper Limb Score, Change from Baseline, Mean (SD) [4]: −0.46 (1.605)
Accelerometer-Based Upper Limb Score, Change from Baseline, Median [4]: −0.23
Accelerometer-Based Upper Limb Score, Percentage Change from Baseline in Tremor Amplitude, Mean (SD) [4]: −6.66 (25.539) %
Accelerometer-Based Upper Limb Score, Percentage Change from Baseline in Tremor Amplitude, Median [4]: −3.87%
Accelerometer-Based Upper Limb Score, Change from Baseline, Mean (SD) [5]: 0.02 (1.702)
Accelerometer-Based Upper Limb Score, Change from Baseline, Median [5]: 0.05
Accelerometer-Based Upper Limb Score, Mean (SD) [5]: 10.94 (0.884)
Accelerometer-Based Upper Limb Score, Median [5]: 11.23
Accelerometer-Based Upper Limb Score, Percentage Change from Baseline in Tremor Amplitude, Mean (SD) [5]: 0.39 (28.120) %
Accelerometer-Based Upper Limb Score, Percentage Change from Baseline in Tremor Amplitude, Median [5]: 0.78%
Accelerometer-Based Upper Limb Score, Mean (SD) [6]: 10.45 (1.616)
Accelerometer-Based Upper Limb Score, Median [6]: 10.88
Accelerometer-Based Upper Limb Score, Change from Baseline, Mean (SD) [7]: −0.35 (3.213)
Accelerometer-Based Upper Limb Score, Change from Baseline, Median [7]: 0.62
Accelerometer-Based Upper Limb Score, Change from Randomization, LS Mean (SE) [7]: 0.071 (1.3594)
Accelerometer-Based Upper Limb Score, Change from Randomization, Mean (SD) [7]: 0.11 (1.662)
Accelerometer-Based Upper Limb Score, Change from Randomization, Median [7]: 0.70
Accelerometer-Based Upper Limb Score, LS Mean Percentage Change in Tremor Amplitude from Randomization [7]: 1.4%
Accelerometer-Based Upper Limb Score, Mean (SD) [7]: 10.56 (2.093)
Accelerometer-Based Upper Limb Score, Median [7]: 10.88
Accelerometer-Based Upper Limb Score, Percentage Change from Baseline in Tremor Amplitude, Mean (SD) [7]: −1.64 (43.539) %
Accelerometer-Based Upper Limb Score, Percentage Change from Baseline in Tremor Amplitude, Median [7]: 9.78%
Accelerometer-Based Upper Limb Score, Percentage Change from Randomization in Tremor Amplitude, Mean (SD) [7]: 2.97 (26.670) %
Accelerometer-Based Upper Limb Score, Percentage Change from Randomization in Tremor Amplitude, Median [7]: 12.37%
Accelerometer-Based Upper Limb Score, Change from Randomization, LS Mean (SE) for Difference (Formula (I) - Placebo) [8]: −2.321 (1.8339)
Accelerometer-Based Upper Limb Score, Change from Randomization, p-value for LS Mean Difference (Formula (I) - Placebo) [8]: 0.2614
Accelerometer-Based Upper Limb Score, LS Mean Percentage Change Difference (Formula (I) - Placebo) [8]: −35.5%
Accelerometer-Based Upper Limb Score, Change from Baseline, Mean (SD) [9]: 2.02 (3.694)
Accelerometer-Based Upper Limb Score, Change from Baseline, Median [9]: 0.35
Accelerometer-Based Upper Limb Score, Change from Randomization, LS Mean (SE) [9]: 3.223 (1.4066)
Accelerometer-Based Upper Limb Score, Change from Randomization, Mean (SD) [9]: 3.02 (2.533)
Accelerometer-Based Upper Limb Score, Change from Randomization, Median [9]: 2.00
Accelerometer-Based Upper Limb Score, LS Mean Percentage Change in Tremor Amplitude from Randomization [9]: 46.1%
Accelerometer-Based Upper Limb Score, Mean (SD) [9]: 13.17 (0.862)
Accelerometer-Based Upper Limb Score, Median [9]: 13.00
Accelerometer-Based Upper Limb Score, Percentage Change from Baseline in Tremor Amplitude, Mean (SD) [9]: 22.11 (42.165) %
Accelerometer-Based Upper Limb Score, Percentage Change from Baseline in Tremor Amplitude, Median [9]: 6.50%
Accelerometer-Based Upper Limb Score, Percentage Change from Randomization in Tremor Amplitude, Mean (SD) [9]: 39.81 (24.948) %
Accelerometer-Based Upper Limb Score, Percentage Change from Randomization in Tremor Amplitude, Median [9]: 31.87%
Accelerometer-Based Upper Limb Score, Change from Randomization, LS Mean (SE) for Difference (Formula (I) - Placebo) [10]: 0.341 (1.8367)
Accelerometer-Based Upper Limb Score, Change from Randomization, p-value for LS Mean Difference (Formula (I) - Placebo) [10]: 0.8597
Accelerometer-Based Upper Limb Score, LS Mean Percentage Change Difference (Formula (I) - Placebo) [10]: 3.6%
Accelerometer-Based Upper Limb Score, Change from Baseline, Median [11]: 0.20
Accelerometer-Based Upper Limb Score, observed, Median [11]: 9.40
Accelerometer-based Upper Limb Score, Change from Baseline, LS Mean [11]: 0.417
Accelerometer-based Upper Limb Score, Change from Baseline, Mean [11]: 0.42
Accelerometer-based Upper Limb Score, observed, Mean [11]: 10.93
LS Mean Percentage Change in Tremor Amplitude [11]: 7.7%
Percentage Change from Baseline in Tremor Amplitude, Mean [11]: 7.49%
Percentage Change from Baseline in Tremor Amplitude, Median [11]: 3.76%
Accelerometer-Based Upper Limb Score, Change from Baseline, Median (Part A (N = 7), Day 7): −0.40
Accelerometer-Based Upper Limb Score, observed, Median (Part A (N = 7), Day 7): 10.38
Accelerometer-based Upper Limb Score, Change from Baseline, LS Mean (Part A (N = 7), Day 7): −1.100
Accelerometer-based Upper Limb Score, Change from Baseline, Mean (Part A (N = 7), Day 7): −1.10
Accelerometer-based Upper Limb Score, observed, Mean (Part A (N = 7), Day 7): 9.31
LS Mean Percentage Change in Tremor Amplitude (Part A (N = 7), Day 7): −19.0%
Percentage Change from Baseline in Tremor Amplitude, Mean (Part A (N = 7), Day 7): −15.89%
Percentage Change from Baseline in Tremor Amplitude, Median (Part A (N = 7), Day 7): −7.39%
Accelerometer-Based Upper Limb Score, Change from Baseline, Median (Part A (N = 7), Day 14): −1.15
Accelerometer-Based Upper Limb Score, observed, Median (Part A (N = 7), Day 14): 8.30
Accelerometer-based Upper Limb Score, Change from Baseline, LS Mean (Part A (N = 7), Day 14): −1.300
Accelerometer-based Upper Limb Score, Change from Baseline, Mean (Part A (N = 7), Day 14): −1.30
Accelerometer-based Upper Limb Score, observed, Mean (Part A (N = 7), Day 14): 8.23
LS Mean Percentage Change in Tremor Amplitude (Part A (N = 7), Day 14): −22.1%
Percentage Change from Baseline in Tremor Amplitude, Mean (Part A (N = 7), Day 14): −20.27%
Percentage Change from Baseline in Tremor Amplitude, Median (Part A (N = 7), Day 14): −19.80%
Accelerometer-Based Upper Limb Score, Change from Baseline, Median (Part A (N = 7), Day 21): −1.05
Accelerometer-Based Upper Limb Score, observed, Median (Part A (N = 7), Day 21): 10.98
Accelerometer-based Upper Limb Score, Change from Baseline, LS Mean (Part A (N = 7), Day 21): −0.117
Accelerometer-based Upper Limb Score, Change from Baseline, Mean (Part A (N = 7), Day 21): −0.12
Accelerometer-based Upper Limb Score, observed, Mean (Part A (N = 7), Day 21): 10.11
LS Mean Percentage Change in Tremor Amplitude (Part A (N = 7), Day 21): −2.2%
Percentage Change from Baseline in Tremor Amplitude, Mean (Part A (N = 7), Day 21): −2.75%
Percentage Change from Baseline in Tremor Amplitude, Median (Part A (N = 7), Day 21): −18.25%
Accelerometer-Based Upper Limb Score, Change from Baseline, LS Mean (SE) [12]: −0.633 (0.3456)
Accelerometer-Based Upper Limb Score, Change from Baseline, Mean (SD) [12]: −0.56 (1.700)
Accelerometer-Based Upper Limb Score, Change from Baseline, Median [12]: −0.60
Accelerometer-Based Upper Limb Score, observed, Mean (SD) [12]: 9.67 (3.109)
Accelerometer-Based Upper Limb Score, observed, Median [12]: 10.50
LS Mean Percentage Change in Tremor Amplitude [12]: −11.4%
Percentage Change from Baseline in Tremor Amplitude, Mean (SD) [12]: −8.42 (25.587) %
Percentage Change from Baseline in Tremor Amplitude, Median [12]: −10.87%
Accelerometer-Based Upper Limb Score, Change from Baseline, LS Mean (SE) [13]: −1.235 (0.3722)
Accelerometer-Based Upper Limb Score, Change from Baseline, Mean (SD) [13]: −1.15 (2.151)
Accelerometer-Based Upper Limb Score, Change from Baseline, Median [13]: −1.20
Accelerometer-Based Upper Limb Score, observed, Mean (SD) [13]: 8.91 (3.335)
Accelerometer-Based Upper Limb Score, observed, Median [13]: 8.85
LS Mean Percentage Change in Tremor Amplitude [13]: −21.1%
Percentage Change from Baseline in Tremor Amplitude, Mean (SD) [13]: −15.44 (29.596) %
Percentage Change from Baseline in Tremor Amplitude, Median [13]: −19.95%
Accelerometer-Based Upper Limb Score, Change from Baseline, LS Mean (SE) [14]: −1.835 (0.4715)
Accelerometer-Based Upper Limb Score, Change from Baseline, Mean (SD) [14]: −1.57 (2.142)
Accelerometer-Based Upper Limb Score, Change from Baseline, Median [14]: −1.00
Accelerometer-Based Upper Limb Score, observed, Mean (SD) [14]: 9.09 (2.989)
Accelerometer-Based Upper Limb Score, observed, Median [14]: 8.95
LS Mean Percentage Change in Tremor Amplitude [14]: −29.7%
Percentage Change from Baseline in Tremor Amplitude, Mean (SD) [14]: −21.20 (27.676) %
